{"source": "patent US9498436B2", "about": "“Testosterone solutions for the treatment of testosterone deficiency” (INNOTESTO BVBA, priority 2010, dated 2016)", "experiment": "Testosterone serum level after oromucosal (buccal) administration of testosterone solution, chemiluminescent-immunoassay", "settings": "for mean increase of the testosterone level per 500 μg T: 30 minutes after buccal administration; for increase per 100 μg T / increase per 500 μg T: buccal solution; for concentration at 30 min: increase of testosterone serum level, 30 minutes post dose, volunteer, baseline 10-15 nmol/L", "description": "Devices used in the experimental oromucosal application of the solutions of the invention were glass bottles with a spray device from Valois, type VP7, allowing the administration of volumes of 25 μL, 50 μL and 100 μL\nBlood samples were taken and analysed for testosterone serum levels using a chemiluminescent-immunoassay (Access Beckman Coulter).\n• Testosterone levels were measured 30 minutes after buccal administration of the testosterone solution by a spray pump with a spray volume of 25 μl, 50 μl or 100 μl. • Oromucosal (buccal,sublingual) testosterone solutions administered were in 17 cases a solution in water containing as main constituents testosterone and RAMEB and in 7 cases testosterone in a solution containing as main excipient isopropyl myristate.", "key": {"[1]": {"settings": "dose 125 μg T, 30 minutes after administration"}, "[2]": {"settings": "dose 300 μg T, 30 minutes after administration"}, "[3]": {"settings": "dose 375 μg T, 30 minutes after administration, separate applications"}, "[4]": {"settings": "dose 400 μg T, 30 minutes after administration, separate applications"}, "[5]": {"settings": "dose 570 μg T, 30 minutes after administration, separate applications"}, "[6]": {"settings": "dose 1000 μg T, 30 minutes after administration"}, "[7]": {"settings": "dose 1150 μg T, 30 minutes after administration"}, "[8]": {"settings": "mean of 24 buccal applications (17 aqueous, 7 non-aqueous), 30 minutes after administration"}, "[9]": {"settings": "oromucosal, general statement in description"}}, "note": "“And” between values parts separate entries of the source, which are not always exact repeats. Equal entries are not always repeated.", "data": [{"smiles": "C[C@]12CC[C@H]3[C@@H](CCC4=CC(=O)CC[C@@]43C)[C@@H]1CC[C@@H]2O", "note": "[testosterone]", "values": [{"measurement": "testosterone (T) serum level", "setting": "Volunteer M, sample M3, 10.00 am, aqueous solution 500 μg T at 7.30 am, 375 μg T at 9.30 and 11.30 am", "value": 25.45, "unit": "nmol/L"}, {"measurement": "testosterone (T) serum level", "setting": "Volunteer M, sample M4, 12.00 am, aqueous solution 500 μg T at 7.30 am, 375 μg T at 9.30 and 11.30 am", "value": 18.81, "unit": "nmol/L"}, {"measurement": "mean increase of the testosterone level per 500 μg T", "setting": "aqueous formulations (testosterone and RAMEB, ethanol 15% v/v), 17 cases", "value": 15.2, "unit": "nmol/L"}, {"measurement": "increase per 100 μg T", "setting": "[1]", "value": 2.7, "unit": "nmol/L"}, {"measurement": "increase per 500 μg T", "setting": "[1]", "value": 14, "unit": "nmol/L"}, {"measurement": "increase per 100 μg T", "setting": "[2]", "value": 4.2, "unit": "nmol/L"}, {"measurement": "increase per 500 μg T", "setting": "[2]", "value": 21, "unit": "nmol/L"}, {"measurement": "increase per 100 μg T", "setting": "[3]", "value": "4.3 nmol/L and 2.4 nmol/L"}, {"measurement": "increase per 500 μg T", "setting": "[3]", "value": "22 nmol/L and 12 nmol/L"}, {"measurement": "increase per 100 μg T", "setting": "[4]", "value": "3.0 nmol/L and 2.0 nmol/L"}, {"measurement": "increase per 500 μg T", "setting": "[4]", "value": "15 nmol/L and 10 nmol/L"}, {"measurement": "increase per 100 μg T", "setting": "[5]", "value": "4.0 nmol/L and 4.4 nmol/L"}, {"measurement": "increase per 500 μg T", "setting": "[5]", "value": "20 nmol/L and 22 nmol/L"}, {"measurement": "increase per 100 μg T", "setting": "[6]", "value": 3.8, "unit": "nmol/L"}, {"measurement": "increase per 500 μg T", "setting": "[6]", "value": 19, "unit": "nmol/L"}, {"measurement": "increase per 100 μg T", "setting": "[7]", "value": 3.1, "unit": "nmol/L"}, {"measurement": "increase per 500 μg T", "setting": "[7]", "value": 16, "unit": "nmol/L"}, {"measurement": "concentration at 30 min", "setting": "human, serum, other: buccal (oromucosal spray), 400 μg, non-aqueous solution, 50 μL=400 μg testosterone buccally", "value": 18, "unit": "nM"}, {"measurement": "concentration at 30 min", "setting": "human, serum, other: buccal (oromucosal spray), 500 μg, aqueous solution, 100 μL (=500 μg testosterone) buccally", "value": 20, "unit": "nM"}, {"measurement": "concentration at 30 min", "setting": "human, serum, other: buccal (oromucosal spray), 800 μg, non-aqueous solution, 100 μL=800 μg testosterone buccally", "value": 36, "unit": "nM"}, {"measurement": "concentration at 30 min", "setting": "human, serum, other: buccal (oromucosal spray), 1000 μg, aqueous solution, 2×100 μL (=1000 μg testosterone) buccally", "value": 38, "unit": "nM"}, {"measurement": "concentration at 0 h", "setting": "human, serum, other: buccal (oromucosal spray), testosterone (T) serum level, Volunteer D, sample D1, 7.30 am (time of first dose), aqueous solution 500 μg T at 7.30, 9.30, 11.30 am", "value": 11.9, "unit": "nM"}, {"measurement": "concentration at 0.5 h", "setting": "human, serum, other: buccal (oromucosal) solution, spray, 500 μg, testosterone (T) serum level, Volunteer D, sample D2, 8.00 am, aqueous solution 500 μg T at 7.30, 9.30, 11.30 am", "value": 18.6, "unit": "nM"}, {"measurement": "concentration at 2.5 h", "setting": "human, serum, other: buccal (oromucosal) solution, spray, 500 μg, testosterone (T) serum level, Volunteer D, sample D3, 10.00 am, aqueous solution 500 μg T at 7.30, 9.30, 11.30 am", "value": 28.1, "unit": "nM"}, {"measurement": "concentration at […]", "setting": "human, serum, other: buccal (oromucosal) solution, spray, 500 μg, testosterone (T) serum level, Volunteer D, sample D4, 12.00 am, aqueous solution 500 μg T at 7.30, 9.30, 11.30 am", "value": 28.7, "unit": "nM"}, {"measurement": "concentration at 0 h", "setting": "human, serum, other: buccal (oromucosal) solution, spray, 500 μg, testosterone (T) serum level, Volunteer M, sample M1, 7.30 am (time of first dose), aqueous solution 500 μg T at 7.30 am, 375 μg T at 9.30 and 11.30 am", "value": 8.72, "unit": "nM"}, {"measurement": "concentration at 0.5 h", "setting": "human, serum, other: buccal (oromucosal) solution, spray, 500 μg, testosterone (T) serum level, Volunteer M, sample M2, 8.00 am, aqueous solution 500 μg T at 7.30 am, 375 μg T at 9.30 and 11.30 am", "value": 25.5, "unit": "nM"}, {"measurement": "mean (SD) increase per 100 μg T", "setting": "[8]", "value": "3.1 nmol/L and 3.1(0.9) nmol/L"}, {"measurement": "mean (SD) increase per 500 μg T", "setting": "[8]", "value": "15.7 nmol/L and 15.7(4.6) nmol/L"}, {"measurement": "mean increase of the testosterone level per 500 μg T", "setting": "non-aqueous formulations (isopropyl myristate, ethanol 15% v/v), 7 cases", "value": 16.7, "unit": "nmol/L"}, {"measurement": "mean increase in testosterone serum level for each 0.1 mg testosterone dose administered", "setting": "[9]", "value": "about 3 nmol/L"}, {"measurement": "mean increase in testosterone serum level for each 0.5 mg testosterone dose administered", "setting": "[9]", "value": "about 15 nmol/L"}]}]}
